# Laboratory results: US8426447B2, “Spiro-tricyclic ring compounds as beta-secretase modulators and methods of use” (Amgen Inc., priority 2008, dated 2013)
# How the values were obtained:
# BACE1 [1] = target: T1, BACE1 (Homo sapiens, UniProt P56817); assay: In Vitro BACE Cell-based Assay (HEK cell assay): Aβ40 in conditioned medium of cells stably expressing Amyloid Precursor Protein, sandwich ELISA; conditions: read-out: HEK cell assay
# Method in brief: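 APP-expressing cells were cultured 24 h in DMEM/10% FBS, then treated 24 h with compounds in 10-point dose response (top 100 μM or 10 μM; 0.1% DMSO final). Secreted Aβ40 was quantified by sandwich ELISA (pAb40 capture, biotinylated 6E10 detection, Europium TRF); IC50 from percent inhibition versus concentration.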
# BACE1 [2] = target: T1, BACE1; assay: In Vitro Enzymatic BACE FRET (Fluorescence Resonance Energy Transfer) Assay; format: biochemical; conditions: read-out: BACE1 FRET assay
# Method in brief: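 Run in 0.05 M acetate pH 4.2 with 10% DMSO final and 100 uM genapol detergent below its CMC. Reaction was started with 50 nM FRET peptide substrate (fluorophore and quencher flanking the BACE cleavage site), incubated one hour, stopped with Tris to neutral pH, and fluorescence read.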
# [3] = HEK cell-based assay, Aβ40 in conditioned medium, IC50 class symbols
# [4] = in vitro BACE FRET enzyme assay, IC50 class symbols
# T1 sequence (P56817 46-501, species assumed): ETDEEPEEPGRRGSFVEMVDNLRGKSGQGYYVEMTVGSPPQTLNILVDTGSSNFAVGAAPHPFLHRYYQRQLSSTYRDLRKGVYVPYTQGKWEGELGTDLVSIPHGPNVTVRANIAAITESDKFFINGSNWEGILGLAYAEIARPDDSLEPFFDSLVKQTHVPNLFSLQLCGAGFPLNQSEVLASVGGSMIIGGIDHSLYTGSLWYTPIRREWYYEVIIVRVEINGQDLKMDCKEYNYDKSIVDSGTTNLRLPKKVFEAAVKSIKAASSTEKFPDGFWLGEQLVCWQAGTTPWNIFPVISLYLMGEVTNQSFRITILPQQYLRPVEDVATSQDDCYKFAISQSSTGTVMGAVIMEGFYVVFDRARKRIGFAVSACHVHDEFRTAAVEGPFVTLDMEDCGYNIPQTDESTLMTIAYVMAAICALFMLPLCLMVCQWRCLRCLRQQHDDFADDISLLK
structure (smiles),measurement,setting,value
COC1CN(c2cc(F)c3c(c2)[C@]2(COC(N)=N2)c2cc(-c4cccnc4)ccc2O3)C1 [compound 474],IC50,BACE1 [1]; HEK cells,< 0.1 µM
same,IC50,BACE1 [2],< 0.1 µM
CC(C)(O)C#Cc1cnc2c(c1)[C@@]1(COC(N)=N1)c1cc(-c3ccccc3)ccc1O2 [compound 709],IC50,BACE1 [1],> 5 µM
same,IC50,BACE1 [2],1 to 5 µM
NC1=N[C@]2(CO1)c1cc(-c3cccnc3)ccc1Oc1cnc(C3CC3)cc12 [compound 678],IC50,BACE1 [1],0.1 to 1 µM
same,IC50,BACE1 [2],< 0.1 µM
COc1ccc(-c2ccc3c(c2)[C@]2(COC(N)=N2)c2cc(-c4cncnc4)ccc2O3)cc1OC [compound 830],IC50,"BACE1 [1]; Table IV, class symbols",0.1 to 1 µM
same,IC50,"BACE1 [2]; Table IV, class symbols",< 0.1 µM
CC(C)(C)COc1ccc2c(c1)[C@@]1(COC(N)=N1)c1cc(-c3ccnc(F)c3)cnc1O2 [compound 752],IC50,BACE1 [1],< 0.1 µM
same,IC50,BACE1 [2],< 0.1 µM
CC(C)(C)COc1ccc2c(c1)[C@]1(COC(N)=N1)c1cc(N3CCCCC3)ccc1O2 [compound 813],IC50,"BACE1 [1]; Table IV, class symbols",0.1 to 1 µM
same,IC50,"BACE1 [2]; Table IV, class symbols",0.1 to 1 µM
NC1=N[C@@]2(CO1)c1cc(-c3cccnc3)ccc1Oc1ccc(N3CCOC4(CC4)C3)cc12 [compound 419],IC50,BACE1 [1]; HEK cells,< 0.1 µM
same,IC50,BACE1 [2],< 0.1 µM
NC1=N[C@]2(CO1)c1cc(-c3cccnc3)ccc1Oc1cnc(-c3cccnc3)cc12 [compound 954],IC50,BACE1 [1],0.1 to 1 µM
same,IC50,BACE1 [2],< 0.1 µM
CC1(COc2ccc3c(c2)[C@]2(COC(N)=N2)c2cc(C#CC4CC4)ccc2O3)COC1 [compound 197],IC50,"BACE1 [1]; Table III, IC50's in uM ranges",< 0.1 µM
same,IC50,"BACE1 [2]; Table III, IC50's in uM ranges",< 0.1 µM
CC1(C)C=C(c2cnc3c(c2)[C@]2(COC(N)=N2)c2cc(-c4cccnc4)ccc2O3)CCO1 [compound 481],IC50,BACE1 [1]; HEK cells,< 0.1 µM
same,IC50,BACE1 [2],< 0.1 µM
NC1=N[C@]2(CO1)c1cc(C(=O)CCCO)ccc1Oc1ccc(-c3cccnc3)cc12 [compound 650],IC50,"BACE1 [1]; Table IV, class symbols",0.1 to 1 µM
same,IC50,"BACE1 [2]; Table IV, class symbols",< 0.1 µM
COc1ccc2c(c1)[C@]1(COC(N)=N1)c1cc(NC(=O)c3cc(Cl)ccn3)ccc1O2 [compound 534],IC50,"BACE1 [1]; Table IV, class symbols",> 5 µM
same,IC50,"BACE1 [2]; Table IV, class symbols",1 to 5 µM
NC1=N[C@]2(CO1)c1ccccc1Oc1ccc(-c3cccc4cccnc34)cc12 [compound 630],IC50,"BACE1 [1]; Table IV, class symbols",> 5 µM
same,IC50,"BACE1 [2]; Table IV, class symbols",1 to 5 µM
"COc1ccc2c(c1)[C@]1(N=C(N)O[C@H]1C)c1cc(-c3cncnc3)ccc1O2 (single isomer, unassigned) [Example 125a]",IC50,"BACE1 [1]; Table III, IC50's in uM ranges",> 5 µM
same,IC50,"BACE1 [2]; Table III, IC50's in uM ranges",> 5 µM
CC(C)(C)COc1ccc2c(c1)[C@]1(COC(N)=N1)c1cc(-c3csc(-n4ccnc4)n3)ccc1O2 [compound 214],IC50,"BACE1 [1]; Table III, IC50's in uM ranges",1 to 5 µM
same,IC50,"BACE1 [2]; Table III, IC50's in uM ranges",0.1 to 1 µM
NC1=N[C@@]2(CO1)c1cc(-c3cncnc3)ccc1Oc1ccc(-c3cccc(C(F)(F)F)c3)cc12 [compound 809],IC50,"BACE1 [1]; Table IV, class symbols",0.1 to 1 µM
same,IC50,"BACE1 [2]; Table IV, class symbols",< 0.1 µM
CC(C)OCCOc1ccc2c(c1)[C@]1(COC(N)=N1)c1cc(-c3cccnc3)ccc1O2 [compound 181],IC50,"BACE1 [1]; Table III, IC50's in uM ranges",0.1 to 1 µM
same,IC50,"BACE1 [2]; Table III, IC50's in uM ranges",< 0.1 µM
CN(C)CCOc1ccc2c(c1)[C@]1(COC(N)=N1)c1cc(-c3cccnc3)ccc1O2 [compound 886],IC50,"BACE1 [1]; Table IV, class symbols",< 0.1 µM
same,IC50,"BACE1 [2]; Table IV, class symbols",0.1 to 1 µM
"COc1ccc2c(c1)[C@]1(COC(N)=N1)c1cc(-c3cc(Cl)ccc3F)ccc1O2 [Example 12, (4S)-2′-(5-chloro-2-fluorophenyl)-7′-methoxyspiro[1,3-oxazole-4,9′-xanthen]-2-amine trifluoroacetic acid]",IC50,"BACE1 [1]; Table 1, Aβ40, 24 h incubation",> 5 µM
same,IC50,BACE1 [2]; Table 1,0.1 to 1 µM
CC1(COc2ccc3c(c2)[C@]2(COC(N)=N2)c2cc(-c4cncnc4)cnc2O3)COC1 [compound 166],IC50,"BACE1 [1]; Table III, IC50's in uM ranges",0.1 to 1 µM
same,IC50,"BACE1 [2]; Table III, IC50's in uM ranges",< 0.1 µM
Cc1cncc(-c2ccc3c(c2)[C@@]2(COC(N)=N2)c2cc(N4CCOCC4)ncc2O3)c1 [compound 325],IC50,BACE1 [1]; [3],< 0.1 µM
same,IC50,BACE1 [2]; [4],< 0.1 µM
COc1ccc2c(c1)[C@@]1(COC(N)=N1)c1cc(-c3cncnc3)cc(F)c1O2 [152b],IC50,"BACE1 [1]; Table III, IC50's in uM ranges",1 to 5 µM
same,IC50,"BACE1 [2]; Table III, IC50's in uM ranges",1 to 5 µM
CC(C)(O)C#Cc1ccc2c(c1)[C@@]1(COC(N)=N1)c1cc(-c3cccnc3)ccc1O2 [151b],IC50,"BACE1 [1]; Table III, IC50's in uM ranges",< 0.1 µM
same,IC50,"BACE1 [2]; Table III, IC50's in uM ranges",< 0.1 µM
CC(C)(C)COc1ccc2c(c1)[C@@]1(COC(N)=N1)c1cc(-c3ccc(F)nc3)cnc1O2 [compound 868],IC50,"BACE1 [1]; Table IV, class symbols",< 0.1 µM
same,IC50,"BACE1 [2]; Table IV, class symbols",< 0.1 µM
"CCCOc1ccc2c(c1)[C@@]1(COC(N)=N1)c1cc(-c3cncnc3)ccc1O2 [Example 11, (4R)-2′-propoxy-7′-(5-pyrimidinyl)spiro[1,3-oxazole-4,9′-xanthen]-2-amine]",IC50,"BACE1 [1]; Table 1, Aβ40, 24 h incubation",1 to 5 µM
same,IC50,BACE1 [2]; Table 1,0.1 to 1 µM
Cc1c(OCC(C)(C)O)ccc2c1[C@]1(COC(N)=N1)c1cc(-c3cccnc3)ccc1O2 [compound 907],IC50,"BACE1 [1]; Table IV, class symbols",< 0.1 µM
same,IC50,"BACE1 [2]; Table IV, class symbols",< 0.1 µM
COc1ccc(-c2ccc3c(c2)[C@]2(COC(N)=N2)c2cc(-c4cncnc4)ccc2O3)cn1 [compound 829],IC50,"BACE1 [1]; Table IV, class symbols",< 0.1 µM
same,IC50,"BACE1 [2]; Table IV, class symbols",< 0.1 µM
NC1=N[C@]2(CO1)c1cc(OC3COC3)ccc1Oc1ccc(-c3cccnc3)cc12 [compound 777],IC50,BACE1 [1],0.1 to 1 µM
same,IC50,BACE1 [2],0.1 to 1 µM
NC1=N[C@@]2(CO1)c1cc(-c3cncnc3)ccc1Oc1ccc(-c3cccc(O)c3)cc12 [compound 891],IC50,"BACE1 [1]; Table IV, class symbols",0.1 to 1 µM
same,IC50,"BACE1 [2]; Table IV, class symbols",< 0.1 µM
CCOCC(=O)Nc1ccc2c(c1)[C@@]1(COC(N)=N1)c1cc(OC)ccc1O2 [compound 376],IC50,BACE1 [1]; [3],0.1 to 1 µM
same,IC50,BACE1 [2]; [4],0.1 to 1 µM
"COc1ccc2c(c1)[C@]1(COC(N)=N1)c1cc(NC(=O)c3ccc(Cl)cn3)ccc1O2 [compound 652, N-((4S)-2-amino-7′-methoxyspiro[1,3-oxazole-4,9′-xanthen]-2′-yl)-5-chloro-2-pyridinecarboxamide]",IC50,"BACE1 [1]; Table IV, class symbols",0.1 to 1 µM
same,IC50,"BACE1 [2]; Table IV, class symbols",< 0.1 µM
Cn1cc(-c2ccc3c(c2)[C@]2(COC(N)=N2)c2cc(Br)ccc2O3)cn1 [compound 638],IC50,"BACE1 [1]; Table IV, class symbols",1 to 5 µM
same,IC50,"BACE1 [2]; Table IV, class symbols",0.1 to 1 µM
CCCOc1cc2c(cc1F)Oc1ccc(-c3cccnc3)cc1[C@]21COC(N)=N1 [compound 939],IC50,BACE1 [1],0.1 to 1 µM
same,IC50,BACE1 [2],0.1 to 1 µM
CC1(C)CC(c2cc(F)c3c(c2)[C@]2(COC(N)=N2)c2cc(-c4cncnc4)ccc2O3)=CCO1 [compound 465],IC50,BACE1 [1]; HEK cells,< 0.1 µM
same,IC50,BACE1 [2],< 0.1 µM
"NC1=N[C@@]2(CO1)c1cc(-c3cncc(F)c3)ccc1Oc1cnc(C3=CCOCC3)cc12 [compound 368, (5S)-3-(3,6-dihydro-2H-pyran-4-yl)-7-(5-fluoro-3-pyridinyl)spiro[chromeno[2,3-c]pyridine-5,4′-[1,3]oxazol]-2′-amine]",IC50,BACE1 [1]; [3],< 0.1 µM
same,IC50,BACE1 [2]; [4],< 0.1 µM
COCC[C@@H]1CN(c2ccc3c(c2)[C@]2(COC(N)=N2)c2cc(-c4cccnc4)ccc2O3)CCO1 [compound 362],IC50,BACE1 [1]; [3],0.1 to 1 µM
same,IC50,BACE1 [2]; [4],0.1 to 1 µM
CC(C)(C)CC(=O)c1ccc2c(c1)[C@@]1(COC(N)=N1)c1cc(-c3ccc(F)nc3)ccc1O2 [150b],IC50,"BACE1 [1]; Table III, IC50's in uM ranges",0.1 to 1 µM
same,IC50,"BACE1 [2]; Table III, IC50's in uM ranges",< 0.1 µM
CC(C)(C)COc1ccc2c(c1)[C@]1(COC(N)=N1)c1cc(-c3cncnc3O)ccc1O2 [compound 884],IC50,"BACE1 [1]; Table IV, class symbols",1 to 5 µM
same,IC50,"BACE1 [2]; Table IV, class symbols",0.1 to 1 µM
COC1CCN(c2ccc3c(c2)[C@]2(COC(N)=N2)c2cc(-c4cccnc4)ccc2O3)CC1 [compound 464],IC50,BACE1 [1]; HEK cells,< 0.1 µM
same,IC50,BACE1 [2],< 0.1 µM
"CC(C)(C)COc1ccc2c(c1)[C@]1(COC(N)=N1)c1cc(C#CC3CC3)ccc1O2 [Example 40, (4S)-2′-(cyclopropylethynyl)-7′-(2,2-dimethylpropoxy)spiro[1,3-oxazole-4,9′-xanthen]-2-amine]",IC50,"BACE1 [1]; Table II, Aβ40, 24 h incubation",0.1 to 1 µM
same,IC50,BACE1 [2]; Table II,< 0.1 µM
CC(C)(O)COc1ccc2c(c1C#N)[C@]1(COC(N)=N1)c1cc(-c3cccnc3)ccc1O2 [compound 929],IC50,BACE1 [1],0.1 to 1 µM
same,IC50,BACE1 [2],< 0.1 µM
CC(C)(C)/C=C/c1ccc2c(c1)[C@]1(COC(N)=N1)c1cc(-c3cncnc3)ccc1O2 [compound 963],IC50,BACE1 [1],< 0.1 µM
same,IC50,BACE1 [2],< 0.1 µM
CC(C)(C)OC(=O)Cc1ccc2c(c1)[C@]1(COC(N)=N1)c1cc(Br)ccc1O2 [compound 707],IC50,BACE1 [1],> 5 µM
same,IC50,BACE1 [2],> 5 µM
CCOC(=O)c1ccc(-c2ccc3c(c2)[C@]2(COC(N)=N2)c2cc(-c4cccnc4)ccc2O3)o1 [compound 725],IC50,BACE1 [1],0.1 to 1 µM
same,IC50,BACE1 [2],< 0.1 µM
CC1(C)CC(c2cc3c(cc2F)Oc2ccc(-c4cncnc4)cc2[C@@]32COC(N)=N2)=CC(=O)O1 [compound 524],IC50,BACE1 [1]; HEK cells,< 0.1 µM
same,IC50,BACE1 [2],< 0.1 µM
